These results are taken from patent publication US12570642B2, “GLP-IR modulating compounds” (Gilead Sciences, Inc., priority 2021, dated 2026).

GLP-1R, sequence (P43220 24-463): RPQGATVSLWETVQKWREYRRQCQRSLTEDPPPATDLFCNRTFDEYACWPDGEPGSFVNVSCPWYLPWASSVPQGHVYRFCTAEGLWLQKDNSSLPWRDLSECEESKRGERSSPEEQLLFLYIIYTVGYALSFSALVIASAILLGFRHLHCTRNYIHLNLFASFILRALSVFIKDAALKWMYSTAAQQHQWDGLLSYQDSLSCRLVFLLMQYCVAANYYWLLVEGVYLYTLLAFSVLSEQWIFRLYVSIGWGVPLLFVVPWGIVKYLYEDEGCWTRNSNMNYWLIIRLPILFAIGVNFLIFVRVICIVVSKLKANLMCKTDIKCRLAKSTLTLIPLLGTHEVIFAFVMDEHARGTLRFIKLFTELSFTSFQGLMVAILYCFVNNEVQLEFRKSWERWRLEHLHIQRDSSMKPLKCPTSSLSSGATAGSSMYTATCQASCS

One assay concerns the target GLP-1R (Homo sapiens, UniProt P43220). The assay is described as follows: GLP-1R Activation - cAMP Assay. Format: cell-based. The settings on record: […]; each compound run on one of the two cAMP assays (Assay 1 or Assay 2, not specified). The procedure:
GLP-1R Activation—cAMP Assay 1
GLP-1R activation by compounds of the present disclosure were quantified by measuring cAMP increase in CHO cells stably expressing GLP-1R (MultiSpan product #C1267-1a). The cells were harvested and plated in growth medium (DMEM/F-12 (Corning product #10-090-CV) supplemented with 10% FBS (HyClone product #SH30071-03), penicillin/streptomycin (Corning product #30-002CI) and 10 μg/ml puromycin (Gibco product #A11138-03)) at 1,000 cells/well in a 384-well plate (Greiner product #781080). The cells were then incubated overnight at 37° C., 5% CO2. The next day, the medium was removed and the cells were washed with DPBS (Corning product #21-031-CM) before adding the assay medium (HBSS, Corning product #21-023-CV) with 20 mM Hepes (Gibco product #15630-080) and 0.1% BSA (Rockland Immunochemicals product #BSA-1000)). Following the medium change, the cells were incubated for 1 hour at 37° C., 5% CO2. The tested GLP-1 compound was added to the cells in a 10-point dose response followed by a 30 minutes incubation at 37° C., 5% CO2. cAMP concentration increase was then detected using Cisbio's cAMP Gs Dynamic Kit (product #62AM4PEC) according to the manufacturer's protocol. The response was plotted against the log of the agonist concentration and fitted to a sigmoidal equation to determine the EC50.
`CC(C)(C)OC(=O)N[C@@H]1COC[C@@H]1n1c(Cc2cc(F)c(-c3cccc(OCc4ccc(C#N)cc4F)n3)cc2F)nc2ccc(C(=O)O)cc21` (racemic) [Example 72, 1-((3R,4S)-4-((tert-butoxycarbonyl)amino)tetrahydrofuran-3-yl)-2-(4-(6-((4-cyano-2-fluorobenzyl)oxy)pyridin-2-yl)-2,5-difluorobenzyl)-1H-benzo[d]imidazole-6-carboxylic Acid] came in with an EC50 of 37 nM.

The assay is the same for the next values; noted with them: cAMP increase in CHO cells stably expressing GLP-1R; each compound run on one of the two cAMP assays (Assay 1 or Assay 2, not specified).
In turn, `C[C@H]1OCC[C@H]1n1c(Cc2cc(F)c(-c3cccc(OCc4ccc(C#N)cc4F)n3)cc2F)nc2ccc(C(=O)O)cc21` (racemic) [Example 73, 2-(4-(6-((4-cyano-2-fluorobenzyl)oxy)pyridin-2-yl)-2,5-difluorobenzyl)-1-((2R,3R)-2-methyltetrahydrofuran-3-yl)-1H-benzo[d]imidazole-6-carboxylic Acid] displayed an EC50 of 2.4 nM. `CNC(=O)[C@@H]1COC[C@@H]1n1c(Cc2cc(F)c(-c3cccc(OCc4ccc(C#N)cc4F)n3)cc2F)nc2ccc(C(=O)O)cc21` (racemic) [Example 75, 2-(4-(6-((4-cyano-2-fluorobenzyl)oxy)pyridin-2-yl)-2,5-difluorobenzyl)-1-((3R,4S)-4-(methylcarbamoyl)tetrahydrofuran-3-yl)-1H-benzo[d]imidazole-6-carboxylic Acid] had an EC50 of 15.6 nM. On the same count and under the same terms, next, `CN(C)C(=O)[C@@H]1COC[C@@H]1n1c(Cc2cc(F)c(-c3cccc(OCc4ccc(C#N)cc4F)n3)cc2F)nc2ccc(C(=O)O)cc21` (racemic) [Example 76, 2-(4-(6-((4-cyano-2-fluorobenzyl)oxy)pyridin-2-yl)-2,5-difluorobenzyl)-1-((3R,4S)-4-(dimethylcarbamoyl)tetrahydrofuran-3-yl)-1H-benzo[d]imidazole-6-carboxylic Acid]: 100 nM; `N#Cc1ccc(COc2cccc(-c3cc(F)c(Cc4nc5ccc(C(=O)O)cc5n4[C@@H]4COC[C@H]4F)cc3F)n2)c(F)c1` (racemic) [Example 77, 2-(4-(6-((4-cyano-2-fluorobenzyl)oxy)pyridin-2-yl)-2,5-difluorobenzyl)-1-((3R,4S)-4-fluorotetrahydrofuran-3-yl)-1H-benzo[d]imidazole-6-carboxylic Acid]: 1.91 nM; `COC[C@H]1COC[C@H]1n1c(Cc2cc(F)c(-c3cccc(OCc4ccc(C#N)cc4F)n3)cc2F)nc2ccc(C(=O)O)cc21` (racemic) [Example 184, 2-(4-(6-((4-cyano-2-fluorobenzyl)oxy)pyridin-2-yl)-2,5-difluorobenzyl)-1-((3S,4S)-4-(methoxymethyl)tetrahydrofuran-3-yl)-1H-benzo[d]imidazole-6-carboxylic Acid]: 0.157 nM. On to `N#Cc1ccc(COc2cccc(-c3cc(F)c(Cc4nc5ccc(C(=O)O)cc5n4C4COC[C@@H]4CO)cc3F)n2)c(F)c1` (mixture of isomers) [Example 216, 2-(4-(6-((4-cyano-2-fluorobenzyl)oxy)pyridin-2-yl)-2,5-difluorobenzyl)-1-((3S,4S)-4-(hydroxymethyl)tetrahydrofuran-3-yl)-1H-benzo[d]imidazole-6-carboxylic acid], for which the EC50 stood at 0.056 nM. Same read-out and setting: then `N#Cc1ccc(COc2cccc(-c3cc(F)c(Cc4nc5ccc(C(=O)O)cc5n4C4COC[C@H]4CO)cc3F)n2)c(F)c1` (mixture of isomers) [Example 217, 2-(4-(6-((4-cyano-2-fluorobenzyl)oxy)pyridin-2-yl)-2,5-difluorobenzyl)-1-((3S,4R)-4-(hydroxymethyl)tetrahydrofuran-3-yl)-1H-benzo[d]imidazole-6-carboxylic acid], with 1.11 nM; and `CO[C@@H]1COCC1n1c(Cc2cc(F)c(-c3cccc(OCc4ccc(C#N)cc4F)n3)cc2F)nc2c(F)cc(C(=O)O)cc21` (mixture of isomers) [Example 256, 2-(4-(6-((4-cyano-2-fluorobenzyl)oxy)pyridin-2-yl)-2,5-difluorobenzyl)-4-fluoro-1-((4S)-4-methoxytetrahydrofuran-3-yl)-1H-benzo[d]imidazole-6-carboxylic acid], with 0.117 nM. Same read-out and setting: then `C[C@@H]1COC[C@H]1n1c(Cc2cc(F)c(-c3cccc(OCc4ccc(C#N)cc4F)n3)cc2F)nc2ccc(C(=O)O)cc21` (racemic) [Example 266, 2-(4-(6-((4-cyano-2-fluorobenzyl)oxy)pyridin-2-yl)-2,5-difluorobenzyl)-1-((3S,4S)-4-methyltetrahydrofuran-3-yl)-1H-benzo[d]imidazole-6-carboxylic acid], with 0.363 nM; and `N#Cc1ccc(COc2cccc(-c3cc(F)c(Cc4nc5ccc(C(=O)O)cc5n4[C@@H]4COC[C@@H]4C(F)F)cc3F)n2)c(F)c1` (racemic) [Example 267, 2-(4-(6-((4-cyano-2-fluorobenzyl)oxy)pyridin-2-yl)-2,5-difluorobenzyl)-1-((4R)-4-(difluoromethyl)tetrahydrofuran-3-yl)-1H-benzo[d]imidazole-6-carboxylic acid], with 0.055 nM; and `N#Cc1ccc(COc2cccc(-c3cc(F)c(Cc4nc5ccc(C(=O)O)cc5n4[C@@H]4COC[C@H]4C(F)F)cc3F)n2)c(F)c1` (racemic) [Example 269, 2-(4-(6-((4-cyano-2-fluorobenzyl)oxy)pyridin-2-yl)-2,5-difluorobenzyl)-1-((3S,4S)-4-(difluoromethyl)tetrahydrofuran-3-yl)-1H-benzo[d]imidazole-6-carboxylic acid], with 0.164 nM. Still for that read-out and setting: next, `CC12CC(n3c(Cc4cc(F)c(-c5cccc(OCc6ccc(C#N)cc6F)n5)cc4F)nc4ccc(C(=O)O)cc43)(CO1)C2` (racemic) [Example 270, 2-(4-(6-((4-cyano-2-fluorobenzyl)oxy)pyridin-2-yl)-2,5-difluorobenzyl)-1-((1s,4s)-1-methyl-2-oxabicyclo[2.1.1]hexan-4-yl)-1H-benzo[d]imidazole-6-carboxylic acid]: 6090 nM; `N#Cc1ccc(COc2cccc(-c3cc(F)c(Cc4nc5ccc(C(=O)O)cc5n4C[C@@]45CO[C@@H](CCO4)C5)cc3F)n2)c(F)c1` (racemic) [Example 272, 1-(((5S)-2,6-dioxabicyclo[3.2.1]octan-1-yl)methyl)-2-(4-(6-((4-cyano-2-fluorobenzyl)oxy)pyridin-2-yl)-2,5-difluorobenzyl)-1H-benzo[d]imidazole-6-carboxylic acid]: 2.11 nM; `O=C(O)c1ccc2nc(Cc3cc(F)c(-c4cccc(OCc5ccc(Cl)cc5F)n4)cc3F)n(C3COC4CC3C4)c2c1` (racemic) [Example 407, 1-((4R)-2-oxabicyclo[3.1.1]heptan-4-yl)-2-(4-(6-((4-chloro-2-fluorobenzyl)oxy)pyridin-2-yl)-2,5-difluorobenzyl)-1H-benzo[d]imidazole-6-carboxylic acid]: 0.421 nM.

With `N#Cc1ccc(COc2cccc(-c3cc(F)c(Cc4nc5ccc(C(=O)O)cc5n4[C@@H]4COC[C@@H]4OC4CC4)cc3F)n2)c(F)c1` (racemic) [Example 411, 2-(4-(6-((4-cyano-2-fluorobenzyl)oxy)pyridin-2-yl)-2,5-difluorobenzyl)-1-((3R,4R)-4-cyclopropoxytetrahydrofuran-3-yl)-1H-benzo[d]imidazole-6-carboxylic acid], the concentration giving a half-maximal response (EC50) was found to be 1.33 nM. `N#Cc1ccc(COc2cccc(-c3cc(F)c(Cc4nc5ccc(C(=O)O)cc5n4[C@@H]4COC[C@@H]4OCC(F)F)cc3F)n2)c(F)c1` (racemic) [Example 412, 2-(4-(6-((4-cyano-2-fluorobenzyl)oxy)pyridin-2-yl)-2,5-difluorobenzyl)-1-((3R,4R)-4-(2,2-difluoroethoxy)tetrahydrofuran-3-yl)-1H-benzo[d]imidazole-6-carboxylic acid] displayed an EC50 of 0.462 nM. Still for that read-out and setting: next, `C[C@@H]1COC[C@@H]1n1c(Cc2cc(F)c(-c3cccc(OCc4ccc(C#N)cc4F)n3)cc2F)nc2ccc(C(=O)O)cc21` (racemic) [Example 505, 2-(4-(6-((4-cyano-2-fluorobenzyl)oxy)pyridin-2-yl)-2,5-difluorobenzyl)-1-((3R,4S)-4-methyltetrahydrofuran-3-yl)-1H-benzo[d]imidazole-6-carboxylic acid]: 0.043 nM. Compound `Cn1cc(-c2cc(F)c(COc3cccc(-c4cc(F)c(Cc5nc6ccc(C(=O)O)cc6n5[C@@H]5COCC5(C)C)cc4F)n3)cn2)cn1` (single isomer, unassigned) [Example 58] returned an EC50 of 0.58 nM. Still for that read-out and setting: then `COC[C@H]1COC[C@H]1n1c(Cc2cc(F)c(-c3cccc(OCc4ccc(C#N)cc4F)n3)cc2F)nc2ccc(C(=O)O)cc21` (single isomer, unassigned) [Example 176A], with 0.085 nM. Same read-out and setting: then `COC[C@@H]1COC[C@@H]1n1c(Cc2cc(F)c(-c3cccc(OCc4ccc(C#N)cc4F)n3)cc2F)nc2ccc(C(=O)O)cc21` (single isomer, unassigned) [Example 176B], with 0.748 nM; and `N#Cc1ccc(COc2cccc(-c3cc(F)c(Cc4nc5ccc(C(=O)O)cc5n4[C@@H]4COC[C@@H]4C(F)F)cc3F)n2)c(F)c1` (single isomer, unassigned) [Example 233], with 3.11 nM. Regarding `N#Cc1ccc(COc2cccc(-c3cc(F)c(Cc4nc5ccc(C(=O)O)cc5n4[C@H]4COC[C@H]4C(F)F)cc3F)n2)c(F)c1` (single isomer, unassigned) [Example 234], a half-maximal response (EC50) required 0.448 nM.
